Measured values published in US8337835B2, “Use of an endogenous ligand for peroxisome proliferator activated receptor alpha to treat liver disorders” (priority 2009, dated 2012).

Assays:
PPARδ LBD = target: T1, PPARδ LBD (Homo sapiens, UniProt Q03181); assay: ALPHASCREEN binding assay, PPARδ ligand binding domain; details: 5 μM; compared with PPARδ activator GW0742
T1 construct: Identical experiments were performed using the PPARδ and PPARγ LBDs; 6xHis; made in house
T1 sequence (Q03181 211-439 limits assumed): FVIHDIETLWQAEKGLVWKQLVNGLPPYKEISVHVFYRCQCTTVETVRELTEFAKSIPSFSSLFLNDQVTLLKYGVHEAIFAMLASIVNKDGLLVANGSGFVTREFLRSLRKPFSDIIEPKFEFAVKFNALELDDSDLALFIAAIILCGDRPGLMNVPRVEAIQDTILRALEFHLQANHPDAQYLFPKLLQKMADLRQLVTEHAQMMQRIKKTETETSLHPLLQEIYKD
Protocol: (§1) Binding of 16:0/18:1-GPC and known agonists to the ligand binding domain (LBD) of PPARα in the presence of various peptide motifs was determined by ALPHASCREEN™ assay (Proc Natl Acad Sci USA 105, pp. 5034-5039, 2008). Experiments used 100 nM receptor LBD, purified as 6× His tag fusion proteins (Mol Cell 17, pp. 491-502, 2005), and 20 nM of N-terminal biotinylated CBP1 peptide or other coactivator peptides in the presence of 5 μg/ml donor and acceptor beads in 50 mM MOPS (pH 7.4), 100 mM NaCl, and 0.1 mg/ml BSA for 90 min at 25° C. Signals were generated in the absence or the presence of ligand. Identical experiments were performed using the PPARδ and PPARγ LBDs.
(§2) Stealth™ siRNA oligonucleotides were used to inhibit the gene expression of mouse ChPT1 ([…]) (SEQ ID NO: 1) and CEPT1 ([…]) (SEQ ID NO: 2) were from Invitrogen (Carlsbad, Calif.). […] Expression of ACO and CPT-1 was also assessed 24 h after addition of 50 μM 16:0/18:1-GPC in a subset of Hepa 1-6 cells previously treated with CEPT1 siRNA. mRNA levels are normalized to control L32 ribosomal mRNA. […] FIGS. 6F-H show the binding of various peptide motifs to the purified PPARα (FIG. 6F), PPARδ (FIG. 6G), and PPARγ (FIG. 6H) LBD in the presence of 5 μM of the corresponding PPAR agonist or 16:0/18:1-GPC as measured by AlphaScreen assays. […]

PPARγ LBD = target: T2, PPARγ LBD (Homo sapiens, UniProt P37231); assay: ALPHASCREEN binding assay, PPARγ ligand binding domain; details: 5 μM
T2 construct: Identical experiments were performed using the PPARδ and PPARγ LBDs; 6xHis; made in house
T2 sequence (P37231 238-503 limits assumed): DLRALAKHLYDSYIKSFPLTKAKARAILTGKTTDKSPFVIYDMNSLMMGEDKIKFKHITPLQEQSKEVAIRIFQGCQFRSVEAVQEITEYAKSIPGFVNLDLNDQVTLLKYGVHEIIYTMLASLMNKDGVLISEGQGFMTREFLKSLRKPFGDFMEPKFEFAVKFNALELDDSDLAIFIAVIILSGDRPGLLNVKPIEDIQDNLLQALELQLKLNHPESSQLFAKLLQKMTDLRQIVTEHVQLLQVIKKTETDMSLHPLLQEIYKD
Protocol: as §1, §2

[1] = tested on: PPARα target gene acyl CoA oxidase; assay: Establishing conditions (dose, rate) for portal vein infusion; type: in vivo, mouse
Protocol: We therefore extrapolated the doses in mice taking into account the direct intraportal route, and tested doses ranging from 0.1 mg/day to 10 mg/day based on a 25 g mouse. […] Optimal dosing frequency was determined based on kinetic data obtained by injection of ^14C-labeled 16:0/18:1-GPC (American Radiochemicals, St. Louis) into the portal vein of […] mice as shown in FIG. 12. Following a single injection into the portal vein (1.9 μCi/mouse), total counts from both cytoplasmic and nuclear fractions were obtained (FIG. 12A). Using standard pharmacokinetic equations (Hardman et al., 2001), a dosing interval of 8.7 hours was calculated, indicating an optimal dosing frequency of three times a day.

## CCCCCCCC/C=C\CCCCCCCC(=O)O[C@H](COC(=O)CCCCCCCCCCCCCCC)COP(=O)([O-])OCC[N+](C)(C)C [16:0/18:1-GPC, 1-palmitoyl-2-oleoyl-sn-glycerol-3-phosphocholine]
PPARδ LBD
  interaction with PPARδ: insubstantial
PPARγ LBD
  binding to PPARγ: does not appear to bind
[1]; intraportal, rapid infusion (<1 min), mice
  lowest dose causing increased expression of the PPARα target gene acyl CoA oxidase: 10 mg/kg
[1]; larger doses and slower infusion rates
  solubility of infusate: poor solubility
[1]; larger doses and slower infusion rates, portal vein
  lethality: death due to portal vein thrombosis
